Results on six compounds are retold here after patent US5582832A, “Compositions for topical application to skin” (priority 1995, dated 1996).

Test [1] deals with keratinocytes. As to conditions: exogenous or endogenous; cited from earlier work.
Test [2] deals with 1,25D degradation (vitamin D metabolism in keratinocytes). Put plainly: Vitamin D metabolism in keratinocytes: 1,25D degradation. Format: cell-based, human. As to conditions: for blocking of 1,25D degradation (in words) / 1,25D degradation (%): 1 uM; for blocking of 1,25D degradation (in words): 20 hours (Table 2); for % degradation (1,25D): Table 1, 10 uM compound; for 1,25D degradation (%): Table 2, 20 hour incubation, mean of duplicate (range); for 1,25D (% degradation): Table 3, 10 uM. How it is done:
(§1) 1. Normal human keratinocytes isolated from neonatal foreskins by trypsin treatment were grown in DME medium/10% fetal calf serum in the presence of irradiated 3T3 mouse fibroblasts for establishing dividing keratinocyte colonies. Keratinocytes were grown under the above condition until their third passage.
(§2) 80% confluent keratinocytes were incubated with 0.05 uCi of ^3 H-25D or ^3 H-1,25D for two hours or 20 hours in the presence of 1-100 uM of the different compounds. Reaction was stopped by addition of methanol and the cells and medium were extracted using chloroform:methanol. The chloroform layer was separated, dried and spotted on TLC plates. […] The amount of radioactivity in each lane was quantitated using the BioScan radioactive plate reader. The amount of radioactivity remaining in the peak area of 25D and 1,25D were calculated as % of control. The % remaining was subtracted from 100 to get the % degradation of the metabolites.
(§3) The data are expressed as mean of % degradation of 25D or 1,25D. The range is also given in parenthesis.

In test [3] the test system is keratinocytes. The test can be described thus: Rate of DNA synthesis (3H-thymidine incorporation) in keratinocytes. Format: cell-based, human. As to conditions: for DNA synthesis, % of control (100 nM 1,25D + 5 uM ceramide Formula A) / DNA synthesis, % of control (azole, only 100 nM 1,25D): Table 4; for DNA synthesis, % of control (100 nM 1,25D + 5 uM ceramide Formula A): 10 uM azole (or no azole) + 100 nM 1,25D + 5 uM ceramide Formula A, * = synergistic effect; for DNA synthesis, % of control (100 nM 1,25D + 5 uM ceramide Formula A) / DNA synthesis, % of control (azole, only 100 nM 1,25D) / DNA synthesis: mean + SD; for DNA synthesis, % of control (azole, only 100 nM 1,25D): 10 uM azole, no ceramide; for DNA synthesis, % of control (azole, only 100 nM 1,25D) / DNA synthesis (% control) / DNA synthesis: 100 nM 1,25D. How it is done: as §1
2. For the experiments, third passage keratinocytes were plated into a serum-free keratinocyte growth medium (KSFM; obtained from Life Technologies, Grand Island, N.Y.) containing 0.09 mM calcium. 20,000 to 30,000 cells were plated into each well of 24 well cell culture plates and grown for 5 days, until the cells reach about 80% confluence.
3. Medium was changed to fresh medium and the various test materials were added to the medium from an ethanolic stock solution (10:00 AM). The final ethanol concentration in the cultures was kept below 0.2%. Control cultures received no tested material but were dosed with 0.2% ethanol. Each compound or combination was tested in three separate wells. By 4:00 PM, 1 uCi of ^3 H-thymidine (Amersham Corp., Sp activity 40 Ci/mmol) was added to the 1 ml medium in each well. The cells were incubated overnight and […] (10:00 AM next day) the amount of ^3 -thymidine associated with the cellular DNA of keratinocytes was assessed as described below.
4. The medium was aspirated, and the wells washed with 1 ml phosphate-buffered saline. The DNA and proteins of the cells in the plate were then precipitated by adding 1 ml of ice-cold 10% trichloroacetic acid (TCA). The plates were left on ice for 30 minutes to complete the precipitation process. TCA was then aspirated and each well was then washed four times with 5% TCA. The plates were then dried on a filter pad and the cells in the wells were dissolved in 0.5 ml of 0.1N sodium hydroxide. The sodium hydroxide was then neutralized using 0.1N hydrochloric acid and the solution (1 ml total volume) was then transferred to a scintillation vial. 50 μl samples from each vial were used for protein assay using BCA protein assay reagent obtained from Pierce Chemical Company. 8 ml of a scintillation fluid (Ecolume) was added to the rest of the solution in the vial, and the vials were counted in a scintillation counter to determine the amount of radioactivity in each vial. The DNA synthesis rate was then calculated as cpm ^3 H thymidine incorporated into total cellular DNA/microgram of cell protein for each individual well. Mean and standard deviation for each group was also calculated.
Rationale for using 1,25D is that in in vivo situation, these azoles will inhibit the endogenous degradation of the 1,25D which is obtained from the circulation. Azoles will act in keratinocytes to increase the endogenous levels of 1,25D within cells. Keratinocytes (70% confluent) were incubated with 10 uM of the different azoles in the presence of 100 nM 1,25D. One of the groups was treated with 5 uM of ceramide of Formula A in the medium. After four hours, all the wells were treated with 1 uCi ^3 H-thymidine and the rate of DNA synthesis was estimated as described in the methods.
Keratinocytes were incubated with 1 or 10 uM of Econazole in the presence of 1 uM of the different ceramide analogues and 100 nM 1,25D in the medium. Thymidine incorporation was measured with an overnight incubation as described in Example 2.
For orientation: Incorporation of labelled thymidine or its analogues reports DNA synthesis.

Test [4] has as its system histamine induced erythema. As to conditions: cited from earlier work.
In test [5] the test system is 25D degradation (vitamin D metabolism in keratinocytes). The test can be described thus: Vitamin D metabolism in keratinocytes: 25D degradation. As to conditions: for blocking of 25D degradation (in words) / 25D degradation (%): 1 uM; for blocking of 25D degradation (in words): 20 hours (Table 2); for % degradation (25D): Table 1, 10 uM compound; for 25D degradation (%): Table 2, 20 hour incubation, mean of duplicate (range); for 25D (% degradation): Table 3, 10 uM. It counts as cell-based, human. How it is done: as §1, §2, §3

The next test relates to vitamin D metabolism. As to conditions: cited from earlier work.
Where [6] appears, read: Tables 4A-4F, azole 10 uM, ceramide Formula A 5 uM.
The mark [7] stands for this setting: Tables 4A-4F, azole 10 uM, 1440 min.
[8] abbreviates: Tables 5A-5I, Econazole 10 uM, ceramide analogue 1 uM.

For `C=C1/C(=C\C=C2/CCC[C@]3(C)[C@@H]([C@H](C)CCCC(C)(C)O)CC[C@@H]23)C[C@@H](O)C[C@@H]1O` [1,25-(OH)2 D3], the “inhibition of DNA synthesis and induction of differentiation (in words)” value in the test on keratinocytes [1] is “inhibit DNA synthesis (i.e., inhibit growth) and induce differentiation of keratinocytes”.

For the compound `C=C1CC[C@H](O)C/C1=C/C=C1\CCC[C@]2(C)[C@@H]([C@H](C)CCCC(C)(C)O)CC[C@@H]12` [25-hydroxyvitamin D (25D), 25-hydroxyvitamin D], the “inhibition of DNA synthesis and induction of differentiation (in words)” value in the test on keratinocytes [1] is “inhibit DNA synthesis (i.e., inhibit growth) and induce differentiation of keratinocytes”.

Regarding `c1ccc(-c2ccc(C(c3ccccc3)n3ccnc3)cc2)cc1` (stereo not drawn) [Bifonazole], in test [2], the “blocking of 1,25D degradation (in words)” value was “very effective”, the “% degradation (1,25D)” value is recorded as 56% and the “1,25D degradation (%)” value was 37.0 (25.4-48.6) %. Besides, in test [2] (2 hours), the “blocking of 1,25D metabolism (in words)” value was “ineffective” and the “1,25D (% degradation)” value turned out to be 83%. In test [2] (20 hours), the “blocking of 1,25D metabolism (in words)” value was “very effective” and the “1,25D (% degradation)” value is 56%. In addition, in the test with keratinocytes [3] (1440 min), the “DNA synthesis, % of control (100 nM 1,25D + 5 uM ceramide Formula A)” value is 44.4 + 7.3 % of control and the “DNA synthesis, % of control (azole, only 100 nM 1,25D)” value was 75.8 + 4.3 % of control. Moreover, in the test with keratinocytes [3] (Tables 4A-4F, azole 10 uM, ceramide Formula A 5 uM, 1440 min), the “DNA synthesis (% control)” value is reported as 75.8 % control. In addition, in the test on keratinocytes [3] (setting [6]), the DNA synthesis was 111256 + 6355 cpm 3H thymidine incorporated. In addition, in test [4], the “direct anti-inflammatory activity (in words)” value is given as “direct anti-inflammatory activity”. Also, in test [5], the “blocking of 25D degradation (in words)” value is “very effective”, the “% degradation (25D)” value is recorded as 15% and the “25D degradation (%)” value was 41.2 (35.4-47.1) %. In test [5] (2 hours), the “blocking of 25D metabolism (in words)” value is on record as “ineffective” and the “25D (% degradation)” value stood at 89%. In addition, in test [5] (20 hours), the “blocking of 25D metabolism (in words)” value is “very effective” and the “25D (% degradation)” value is 15%.

As for `Clc1ccc(COC(Cn2ccnc2)c2ccc(Cl)cc2Cl)cc1` (stereo not drawn) [Econazole], in test [2], the “blocking of 1,25D degradation (in words)” value is listed as “very effective”, the “% degradation (1,25D)” value is recorded as 2% and the “1,25D degradation (%)” value was 46.8 (45.1-48.6) %. For the same compound, in test [2] (2 hours), the “blocking of 1,25D metabolism (in words)” value is reported as “ineffective” and the “1,25D (% degradation)” value came out at 78%. Further, in test [2] (20 hours), the “blocking of 1,25D metabolism (in words)” value was “very effective” and the “1,25D (% degradation)” value is on record as 2%. Also, the “inhibition of 1,25D metabolism (in words)” value in test [2] (results of Table 1) is on record as “most potent”. Further, in the test with keratinocytes [3] (1440 min), the “DNA synthesis, % of control (100 nM 1,25D + 5 uM ceramide Formula A)” value is 22.5 + 2.4 % of control and the “DNA synthesis, % of control (azole, only 100 nM 1,25D)” value is recorded as 64.5 + 3.9 % of control. Further, the DNA synthesis with keratinocytes [3] (setting [6]) is 94719 + 5732 cpm 3H thymidine incorporated. For the same compound, the “DNA synthesis (% control)” value with keratinocytes [3] (setting [7]) came out at 64.57 % control. Besides, in the test on keratinocytes [3] (setting [8]), the “DNA synthesis (% control)” value was found to be 50.5 % control and the DNA synthesis is 15147 + 4337 cpm 3H thymidine incorporated. In test [5], the “blocking of 25D degradation (in words)” value is given as “very effective”, the “% degradation (25D)” value came to 5% and the “25D degradation (%)” value is recorded as 54.1 (44.3-63.9) %. In addition, in test [5] (2 hours), the “blocking of 25D metabolism (in words)” value is listed as “ineffective” and the “25D (% degradation)” value came to 92%. Besides, in test [5] (20 hours), the “blocking of 25D metabolism (in words)” value is given as “very effective” and the “25D (% degradation)” value is reported as 5%. The “inhibition of 25D metabolism (in words)” value in test [5] (results of Table 1) is reported as “most potent”.

For `CC(=O)N1CCN(c2ccc(OCC3COC(Cn4ccnc4)(c4ccc(Cl)cc4Cl)O3)cc2)CC1` (stereo not drawn) [Ketoconazole, ketoconazole], the “inhibition of vitamin D metabolism (in words)” value in the test on vitamin D metabolism is “established inhibitor of vitamin D metabolism”.

Regarding `Clc1ccc(COC(Cn2ccnc2)c2ccc(Cl)cc2Cl)c(Cl)c1` (stereo not drawn) [Miconazole], in test [2], the “blocking of 1,25D degradation (in words)” value was “did not block 1,25D degradation”, the “% degradation (1,25D)” value amounted to 70% and the “1,25D degradation (%)” value was 75.8 (69.9-81.8) %. Moreover, in the test with keratinocytes [3] (1440 min), the “DNA synthesis, % of control (100 nM 1,25D + 5 uM ceramide Formula A)” value is 17.5 + 3.3 % of control and the “DNA synthesis, % of control (azole, only 100 nM 1,25D)” value was 42.8 + 1.8 % of control. Besides, in the test with keratinocytes [3] (setting [6]), the DNA synthesis was 62806 + 2649 cpm 3H thymidine incorporated. Further, in the test with keratinocytes [3] (setting [7]), the “DNA synthesis (% control)” value is reported as 42.8 % control. Further, in test [5], the “blocking of 25D degradation (in words)” value was “effective with 25D”, the “% degradation (25D)” value stood at 54% and the “25D degradation (%)” value was 38.7 (35.4-42.0) %.
